Measured values as given in publication PMC7235819, “Advanced Resistance Studies Identify Two Discrete Mechanisms in Staphylococcus aureus to Overcome Antibacterial Compounds that Target Biotin Protein Ligase” (Antibiotics, 2020).
In brackets after ≈: the same amount, converted by molar mass.

Columns and labels:
[1] = test system: T1, Staphylococcus aureus NCTC-8325; experiment: microbe, parasite or virus in culture; design: antimicrobial susceptibility assay, MIC, growth inhibition of S. aureus parent strain; conditions: NCTC8325
T1 construct: NCTC 8325
Experimental: The ability of S. aureus to develop resistance to BASA was investigated using both spontaneous resistance and serial passage approaches. The S. aureus NCTC 8325 strain was selected due to the availability of a sequenced reference genome for comparative sequence analysis. To measure the rate at which spontaneous resistance develops, 10^9 S. aureus cells were plated onto media containing four times the MIC of BASA. No resistant mutants grew after 24 hours which equates to a calculated resistance frequency of <10^−9 at this inhibitor concentration. BASA resistant S. aureus strains were subsequently generated by the serial passage of seven populations of S. aureus NCTC 8325 in sub-inhibitory concentrations of BASA for 18 days at which time individual colonies were isolated. These were then passaged on non-selective media to verify that the inherited resistance was genetically stable. The sensitivity of the strains to BASA was then established using antimicrobial sensitivity assays (Table 2 and Figure S8A). The isotypic parent strain was highly sensitive to BASA, with an MIC of 0.0625 µg/mL. […] To determine if there was a fitness cost associated with these mutations, in vitro growth curves for the seven strains were analyzed and doubling times calculated (Table 2, Figure S8B). […] To test if the resistance mechanisms identified were specific for BASA, all seven strains were subjected to antibacterial susceptibility assays against a panel of diverse antibiotics that included two known BPL inhibitors, namely biotinol-5′-AMP [32] and BPL223 (compound 4c in [30]). The evolved resistance mechanisms appeared specific to the BPL inhibitors as there was no change in susceptibility to β-lactams amoxicillin and methicillin (Table S1).

[2] = target: T2, biotin protein ligase (SaBPL) (Staphylococcus aureus, UniProt A0A3A5LBF0); experiment: native nESI-MS of holo protein (homodimer); assay type: binding
T2 construct: gene birA; recombinant SaBPL

[3] = target: T3, biotin protein ligase (SaBPL-D200E) (Staphylococcus aureus, UniProt A0A3A5LBF0, D200E); experiment: native nESI-MS of holo protein (monomer); assay type: binding
T3 construct: gene birA; recombinant SaBPL-D200E

[4] = target: Staphylococcus aureus biotin protein ligase (SaBPL), wildtype (S. aureus Mu50); experiment: native MS; native nESI-MS (Waters Synapt G1 HDMS), holo protein (biotinyl-5'-AMP bound); 10 uM wildtype SaBPL; SaBPL-D200E at 1.4 to 90 uM; monomer to dimer
[5] = test system: O=C(O)CCCC[C@@H]1SC[C@@H]2NC(=O)N[C@@H]21; experiment: purified protein; conditions: MgATP biotin-binding pocket (biotin-binding loop residues […])
[6] = test system: O=C(O)CCCC[C@@H]1SC[C@@H]2NC(=O)N[C@@H]21; experiment: in vitro protein biotinylation assay, Km; assay type: biochemical, Staphylococcus aureus; conditions: MgATP biotin-binding pocket (biotin-binding loop residues […])
[7] = target: SaBPL (biotin protein ligase, BirA) wild type (Staphylococcus aureus Mu50, UniProt A0A0H3JRH8 1-323); experiment: EMSA; 100 uM biotin + MgATP, 2.5% DMSO (control for BASA); EMSA adapted from cited protocols; buffer, salt, pH and temperature not given; BASA or biotin at 100 uM with 2.5% DMSO in the Fig S7 assays; conditions: protein: recombinant

CC1(C)S[C@@H]2[C@H](NC(=O)[C@H](N)c3ccc(O)cc3)C(=O)N2[C@H]1C(=O)O [amoxicillin]
MIC [1]: 16 µg/mL (≈ 43.8 µM)

Nc1ncnc2c1ncn2[C@@H]1O[C@H](COP(=O)(O)OCCCCC[C@@H]2SC[C@@H]3NC(=O)N[C@@H]32)[C@@H](O)[C@H]1O [biotinol-5'-AMP, biotinol-5′-AMP]
MIC [1]: 1 µg/mL (≈ 1.79 µM)

Nc1ncnc2c1ncn2[C@@H]1O[C@H](COP(=O)(O)OC(=O)CCCC[C@@H]2SC[C@@H]3NC(=O)N[C@@H]32)[C@@H](O)[C@H]1O [biotinyl-5′-AMP]
native nESI-MS of holo protein (homodimer) [2]: SaBPL underwent a well-characterized monomer-to-dimer transition induced by biotinyl-5′-AMP (Figure 3A,B) | native nESI-MS of holo protein (monomer) [3]: native nESI–MS provided sufficient mass resolution to confirm the presence of bound biotinyl-5′-AMP

COc1cccc(OC)c1C(=O)N[C@@H]1C(=O)N2[C@@H]1SC(C)(C)[C@@H]2C(=O)O [methicillin]
MIC [1]: 2 µg/mL (≈ 5.26 µM)

Staphylococcus aureus biotin protein ligase (SaBPL), wildtype (enzyme)
stoichiometry N [4]: 2

biotin protein ligase (SaBPL) (Staphylococcus aureus)
Km [5]: 1.8 ± 0.3 µM

biotin protein ligase (SaBPL-D200E) (Staphylococcus aureus; D200E)
Km [6]: 3.8 ± 0.4 µM

B1: bioY (dsDNA)
DNA 1: AACTTATTGTAAACTTTTCATTTCTTAAAGTTTACAATGGTGCT
DNA 2: AGCACCATTGTAAACTTTAAGAAATGAAAAGTTTACAATAAGTT
binding result ([7]; blunt): binds

B2: bioO (dsDNA)
DNA 1: CCTTAAATGTAAACTTTTATAATTAATAAGTTTACATTTAAG
DNA 2: CCTTAAATGTAAACTTATTAATTATAAAAGTTTACATTTAAGG
binding result ([7]; bottom strand 5' overhang 1 nt as printed (top 42 nt lacks the final G)): binds
